Tests used:
[1] = Solubility in aqueous medium; format: physicochemical
[2] = Cyclic voltammetry of the complexes at glassy carbon electrode; format: physicochemical; settings: cyclic voltammetric measurements
Procedure: The voltammetric measurements were performed by using three electrode based Auto Lab electrochemical workstation (Netherland). The working electrode was glassy carbon electrode (GCE), while Ag/AgCl and platinum were used as reference counter electrodes respectively. The weights of the chemicals were measured by using GR-2000 electrical balance. The pH of the buffer was controlled by Accumet® XL50 pH meter. For electrochemical analysis, the compounds 1 and 2 were dissolved in the ethanol as their solubility was very poor in aqueous medium. Prior to each analysis, the GCE was polished as a mirror like surface with alumina slurry on the synthetic clothe. The cyclic voltammograms for various analyses were recorded from 0.0 V to +1.3 V with a scan rate of 0.1 V/s. Electrochemical behavior may be studied using the methods described by Al-Jaroudi et al. and Seliman et al. (incorporated by reference) and well known model proteins. […]
To get an insight into the reactivity of the complexes, the interactions of complexes 1 and 2 with model proteins, L-tyrosine, glutathione and lysozyme were studied electrochemically. The electrochemical behavior of complexes 1 and 2 in the presence of the proteins was analyzed by cyclic voltammetric technique (CV). […]

Lysozyme protein = biological target: T1, Lysozyme protein (Gallus gallus, UniProt P00698); experiment: Interaction with lysozyme by cyclic voltammetry; design: species or system chicken; settings: 0.2 mM complex
T1 construct: the Lysozyme protein attained from chicken egg white; purchased Sigma-Aldrich; host or cells: chicken egg white (natural source)
T1 sequence (P00698 19-147): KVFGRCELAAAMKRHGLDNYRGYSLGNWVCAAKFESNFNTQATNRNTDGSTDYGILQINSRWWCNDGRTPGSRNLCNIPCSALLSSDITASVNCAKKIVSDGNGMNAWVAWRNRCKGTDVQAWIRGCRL
Procedure: The voltammetric measurements were performed by using three electrode based Auto Lab electrochemical workstation (Netherland). The working electrode was glassy carbon electrode (GCE), while Ag/AgCl and platinum were used as reference counter electrodes respectively. The weights of the chemicals were measured by using GR-2000 electrical balance. The pH of the buffer was controlled by Accumet® XL50 pH meter. For electrochemical analysis, the compounds 1 and 2 were dissolved in the ethanol as their solubility was very poor in aqueous medium. Prior to each analysis, the GCE was polished as a mirror like surface with alumina slurry on the synthetic clothe. The cyclic voltammograms for various analyses were recorded from 0.0 V to +1.3 V with a scan rate of 0.1 V/s. Electrochemical behavior may be studied using the methods described by Al-Jaroudi et al. and Seliman et al. (incorporated by reference) and well known model proteins. See S. S. Al-Jaroudi, M. Altaf, A. Al-Saadi, A.-N. Kawde, S. Altuwaijri, S. Ahmad and A. A. Isab, Biometals, 2015, 28, 827-844; and A. Seliman, M. Altaf, A. Kawde, M. Wazeer and A. Isab, J. Coord. Chem., 2014, 67, 3431-3443, each incorporated herein by reference in their entirety.
Moreover, the interaction of these compounds was also explored with the Lysozyme protein attained from chicken egg white.

[3] = tested on: HCT15 (colon cancer cells); experiment: In vitro cytotoxic activity, MTT assay, HCT15; format: cell-based, human; settings: 24 h incubation with complex, mean ± standard deviation
Procedure: (§1) To examine the possible anticancer effect of complexes 1, 2, and cisplatin, a panel of three human tumor cell lines, A549 (lung cancer cells), MCF7 (breast cancer cells) and HCT15 (colon cancer cells) was used. The different human carcinoma cell cultures (A549, MCF7, HCT15) were first seeded at the concentration of 2×10^4 cells per mL in their respective growth mediums containing 10% FBS (fetal bovine serum) in a 96-well tissue culture plate and were incubated for 72 h at 37° C., 5% CO2 in air and 90% relative humidity in a CO2 incubator. After that the cell cultures were incubated for 24 h with 100 μL of cisplatin and the complexes (1-3) having 100, 50, 25 and 12.5 μM concentrations, prepared in growth medium. Further, the cultures were incubated with 100 μL of vital mitochondrial tetrazolium dye (3-(4,5-dimethylthiazol-2-yl)-2,5-diphenyltetrazolium bromide) (0.5 mg/ml) in a CO2 incubator at 37° C. in the dark for 4 h. After incubation, purple colored formazan crystals were formed due to the reduction of dye by mitochondrial succinate dehydrogenase enzyme. The resultant crystals were solublized by adding 100 μL of dimethylsulfoxide (DMSO). The colored solution formed was thoroughly mixed and read spectrophotometrically at 570 nm with Lab systems Multiskan EX-Enzyme-linked immunosorbent assay (EX-ELISA) reader against a reagent blank. All data presented are mean±standard deviation.
(§2) The anticancer activity of complexes 1-3 as well as cisplatin was evaluated against a panel of representative human tumor cell lines, which include, lung cancer cells (A549), breast cancer cells (MCF7) and colon cancer cells (HCT15). The results of in vitro cytotoxic activity are expressed as IC50 (concentration causing 50% reduction in cell viability) and are presented in Table 4. […] For 1, the IC50 values are closer to cisplatin. In going from 1 to 2, the substitution of two chlorine atoms by the chelating diamine ligand brought about a 1.5-3 times decrease in the antiproliferative activity of 2.

[4] = tested on: A549, MCF7 and HCT15 cells; experiment: In vitro cytotoxic activity, statements on the whole panel of three tumor cell lines; format: cell-based, human
Procedure: as §1, with “After incubation, purple colored formazan crystals were formed due to the reduction of dye by mitochondrial succinate dehydrogenase enzyme. The resultant crystals were solublized by adding 100 μL of dimethylsulfoxide (DMSO).” left out, “All data presented are mean±standard deviation.” left out
The anticancer activity of complexes 1-3 as well as cisplatin was evaluated against a panel of representative human tumor cell lines, which include, lung cancer cells (A549), breast cancer cells (MCF7) and colon cancer cells (HCT15). […]

A549 (lung cancer cells) = experiment: In vitro cytotoxic activity, MTT assay, A549; format: cell-based, human; settings: 24 h incubation with complex, mean ± standard deviation
Procedure: as §1, §2

[5] = tested on: MCF7 (breast cancer cells); experiment: In vitro cytotoxic activity, MTT assay, MCF7; format: cell-based, human; settings: 24 h incubation with complex, mean ± standard deviation
Procedure: as §1, §2

Compound | solubility in aqueous medium [1] | stability of gold(III) center during reaction with L-tyrosine, glutathione and lysozyme [2] | effect of successive addition of Lysozyme on the complex peaks (Lysozyme protein) | IC50 [3] | decrease in the antiproliferative activity in going from 1 to 2 ([4]; 2 compared with 1, three cell lines) | IC50 (A549 (lung cancer cells)) | IC50 [5] | interaction with Lysozyme (comparison) (Lysozyme protein) | antiproliferative potency, rank among the complexes ([4]; A549, MCF7, HCT15)
[Au(npen)2]Cl3 [Complex 2] | very poor | remained stable | decrease in the current intensities of the complex peaks | 4.23 ± 1.31 µM | 1.5-3 times | 10.3 ± 2.82 µM | 7.77 ± 1.82 µM | – | –
NC(c1cccc2ccccc12)C(N)c1cccc2ccccc12.O.O.[Au+3].[Cl-].[Cl-].[Cl-] (stereo not drawn) [Complex 1, [Au(npen)Cl2]Cl.2H2O] | very poor | remained stable | decrease in the current intensities of the complex peaks | 9.4 ± 1.93 µM | – | 28.8 ± 4.02 µM | 11.8 ± 2.6 µM | more significant | least active
N.N.[Cl][Pt][Cl] [Cisplatin, cisplatin, reference compound] | – | – | – | 23.1 ± 3.78 µM | – | 42.9 ± 1.99 µM | 23.1 ± 3.78 µM | – | –
